# Patent US10793522B2, “Sulfonamides as inhibitors of the uptake of extracellular citrate” (Boehringer Ingelheim International GmbH, priority 2016, dated 2020)
# Experiments:
# [1] = biological target: T1, hSLC13A5 (Homo sapiens, UniProt Q86YT5); experiment: HepG2/14C-citrate uptake assay; assay type: cell-based; design: HepG2 cells endogenously express hSLC13A5 transporter which is responsible for the uptake of citrate into these cells; endogenous in cells; host or cells: HepG2; conditions: HepG2 cells endogenously expressing hSLC13A5; Cytostar-T; 14C-citrate ~1.8 μM; incubation over night
# Description: (4) HepG2/^14C-Citrate Uptake Assay
# HepG2 cells endogenously expressing hSLC13A5 were obtained from the Wistar Institute (Knowles et al., Science 1980, 209, 497-499).
# HepG2 cells endogenously express hSLC13A5 transporter which is responsible for the uptake of citrate into these cells. […] The uptake of ^14C-citrate into HepG2 cells is monitored using the Cytostar-T assay. This assay format is based on the imported radioactive citrate brought into proximity with the scintillant contained within the base of the plate by virtue of the biological processes within the cells. The radioactive decay is converted to a light signal based on the integration of the scintillation matrix into the assay plate.
# (§1) Method: ^14C-Citrate Uptake Assay
# Starting from 10 mM stock solutions in 100% DMSO, compounds are diluted in pure DMSO using the appropriate dilution steps. Prior to the uptake assay, 400 μL assay medium+4.8 μL compound solution (or pure DMSO for non-inhibited control wells) are mixed (final DMSO concentration in the assay: 1% (v/v)) ^14C-citrate working solution (volumes required per 96-well):
# The HepG2 cells are cultivated in cell culture medium (EMEM+10% fetal calf serum+1×NEAA and 10 mM L-Glutamin) For the assay, the medium of the confluent cultures is discarded and the cells are washed with DPBS w/o Mg^2+ w/o Ca^2+. The cells are detached by the addition of 1.0 mL 2× Trypsin in DPBS w/o Mg^2+ w/o Ca^2+ with 7.5 mM EDTA per 75 cm^2 culture flask for up to 3 minutes at 37° C. and resuspended in 10 mL cell culture medium. Following cell counting, 100,000 cells/well are seeded in a volume of 200 μL into Cytostar-T Scintillating 96-well microplates. After overnight incubation in a humid cell culture incubator at 37° C., 5% CO2, the cell culture medium is carefully aspirated and the cells are incubated with 200 μL prewarmed (37° C.) assay medium (50% DMEM+50% Ham's F-12+15 mM HEPES (pH 7.4) (medium contains 15.5 m M D(+)-glucose) per well for at least 1 h prior to the experiment.
# Immediately prior to uptake assay, the assay medium is carefully removed and 100 μL test compound dilution is added to each well (n=3).
# Following a 20 min incubation at 37° C. in the cell culture incubator, 20 μL of ^14C-citrate working solution is added to each well (final volume per well: 120 μL; final ^14C-citrate concentration ˜1.8 μM/well)).
# After incubation over night at 37° C. in the cell culture incubator, the plates are sealed on the top using a transparent plastic foil and on the bottom using a white plastic foil. Following the sealing, the plate is placed into the TopCount NXT HTS and the signal is recorded.
# (§2) The IC50 values of the compounds are calculated in IDBS XLfit by sigmoidal dose-response (variable slope).
# [2] = biological target: T1, hSLC13A5; experiment: Recombinant hSLC13A5/14C-citrate uptake assay; assay type: cell-based; conditions: HEK293 Flp-In cells over-expressing hSLC13A5; WGA-PVT SPA beads; 14C-citrate approx. 2 μM; 4 h
# Description: (5) Recombinant hSLC13A5/^14C-Citrate Uptake Assay
# The human embryonic kidney 293 (HEK 293)-Flp-In cells (293Flp-In-hSLC13A5) over-expressing hSLC13A5 transporter were cloned: The originating plasmid pcDNA3.1-hSLC13A5 containing hSLC13A5 was synthesized at GeneArt. The cDNA for hSLC13A5 was taken from this plasmid by means of PCR amplification using primers with added HindIII (N-terminal) and XhoI (C-terminal) restriction sites and sub-cloned in frame into pcDNA5/FRT from Invitrogen using the respective restriction enzymes. HEK293 Flp-In cells from Invitrogen were stably co-transfected using the pcDNA/FRT-hSLC13A5 plasmid as well as the pOG44 plasmid.
# HEK 293-Flp-In cells are used that stably over-express hSLC13A5 transporter which is responsible for the uptake of citrate into these cells.
# The uptake of ^14C-citrate into the 293Flp-In-hSLC13A5 cells is monitored using the WGA-PVT SPA (wheat germ agglutinin-polyvinyltoluene scintillation proximity assay) beads that bind to the 293Flp-In cells due to their WGA-PVT surface. This assay format is based on the imported radioactive citrate brought into proximity with the SPA beads by virtue of the biological processes within the cells. The radioactive decay is converted into a light signal that can be measured using e.g. the TopCount plate reader.
# as §1
# Test Compound Dilutions (2Fold-Concentrated):
# Starting from 10 mM stock solutions in 100% DMSO, compounds are diluted in pure DMSO using the appropriate dilution steps.
# Prior to the uptake assay, 200 μL assay medium (lx HBSS (with Ca^2+ and Mg^2+, w/o Phenolred), contains 5.56 mM D(+)-Glucose)+19.44 mM D(+)-Glucose (final concentration of D(+)-Glucose is 25 mM))+4.8 μL compound solution (or pure DMSO for non-inhibited control wells) are mixed (final DMSO concentration in the assay: 1% (v/v)).
# After preparing the 2fold-concentrated test compound dilutions, 50 μL are pipetted to each well of white OptiPlates-96 and incubated at 37° C. in an incubator.
# ^14C-Citrate Working Solution (Volumes Required Per 96-Well):
# The 293Flp-In-hSLC13A5 cells are cultivated in cell culture medium (DMEM+10% fetal calf serum+100 μg/mL Hygromycin B). The medium of the confluent cultures is discarded and the cells are washed with DPBS (w/o Mg^2+ w/o Ca^2+). The cells are detached by the addition of 2.0 mL Accumax per 75 cm^2 culture flask for up to 3 minutes at 37° C. and resuspended in 10 mL assay medium. After cell counting, 50,000 cells/well are administered in a volume of 50 μL into the white OptiPlates-96 containing the respective test compound concentrations. Following a 20 min incubation at 37° C. in the cell culture incubator, 20 μL of ^14C-citrate working solution is added to each well (final volume per well: 120 μL; final ^14C-citrate concentration: approx. 2 μM/well).
# After incubation for 4 h at 37° C. in a humid cell culture incubator and the addition of 30 μL of WGA-PVT SPA beads to each well (0.25 mg/well), the plates are sealed on the top using a transparent plastic foil. Incubate the plates for 1 h by room temperature and gentle shaking.
# After incubation, the plate is placed into the TopCount NXT HTS and the signal is recorded.
# The performance of the test compounds is calculated as follows:
# Wells containing cells incubated with 1% DMSO only deliver values for the non-inhibited ^14C-citrate uptake into 293Flp-In-hSLC13A5 cells (100% CTL). Wells containing cells which have received 30 mM non-labelled potassium citrate solution in addition to the ^14C-citrate working solution deliver values for the background (0% CTL).
# as §2
# T1 sequence (Q86YT5 whole entry): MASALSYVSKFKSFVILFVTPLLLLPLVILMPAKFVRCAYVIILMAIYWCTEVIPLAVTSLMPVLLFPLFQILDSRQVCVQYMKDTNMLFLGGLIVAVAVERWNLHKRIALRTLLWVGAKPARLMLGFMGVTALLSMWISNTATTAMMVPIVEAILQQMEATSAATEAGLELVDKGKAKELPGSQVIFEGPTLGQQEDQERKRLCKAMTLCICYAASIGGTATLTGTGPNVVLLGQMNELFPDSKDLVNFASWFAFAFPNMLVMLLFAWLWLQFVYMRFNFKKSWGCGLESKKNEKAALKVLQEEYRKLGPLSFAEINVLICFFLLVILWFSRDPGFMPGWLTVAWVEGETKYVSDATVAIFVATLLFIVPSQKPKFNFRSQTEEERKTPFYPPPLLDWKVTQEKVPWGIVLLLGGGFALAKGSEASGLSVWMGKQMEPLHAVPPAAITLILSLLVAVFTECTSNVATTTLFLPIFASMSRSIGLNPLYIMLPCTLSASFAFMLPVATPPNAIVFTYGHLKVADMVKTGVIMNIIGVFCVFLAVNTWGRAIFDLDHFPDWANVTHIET
IC50 [1] [nM],IC50 [2] [nM],Structure (SMILES)
65,,COc1ccccc1CNC(=O)C1CCN(S(=O)(=O)c2cc(Cl)cc(Cl)c2)CC1 [(I-21)]
17,,Cc1cc(C)cc(S(=O)(=O)N2CCC(C(=O)NCc3ccc(Br)cc3)CC2)c1 [(I-48)]
66,41,CCc1ccc(CNC(=O)C2CCN(S(=O)(=O)c3cc(Br)cc(Br)c3)CC2)nc1 [(I-31)]
471,,O=C(NCc1ccc(Cl)nc1)C1CCN(S(=O)(=O)c2cc(Cl)cc(Cl)c2)CC1 [(I-3)]
103,132,O=C(NCc1ccc(Cl)cn1)C1CCN(S(=O)(=O)c2cc(Cl)cc(Cl)c2)CC1 [(I-12)]
35,,Cc1cc(C)cc(S(=O)(=O)N2CCC(C(=O)NCc3ccc(F)cc3)CC2)c1 [(I-42)]
83,,O=C(NCc1cc(F)ccc1F)C1CCN(S(=O)(=O)c2cc(Cl)cc(Cl)c2)CC1 [(I-24)]
110,410,CCOc1cc(Cl)cc(S(=O)(=O)N2CCC(C(=O)NCc3ccccn3)CC2)c1 [(I-53)]
82,,O=C(NCc1ccccc1Br)C1CCN(S(=O)(=O)c2cc(Cl)cc(Cl)c2)CC1 [(I-6)]
292,436,COc1cc(Cl)cc(S(=O)(=O)N2CCC(C(=O)NCc3ccc(F)cn3)CC2)c1 [(I-56)]
422,918,Cc1cc(Br)cc(S(=O)(=O)N2CCC(C(=O)NCc3cccnc3)CC2)c1 [(I-60)]
30,,O=C(NCc1ccc(Br)cc1)C1CCN(S(=O)(=O)c2cc(Cl)cc(Cl)c2)CC1 [(I-7)]
290,449,O=C(NCc1cccc(Cl)n1)C1CCN(S(=O)(=O)c2cc(Cl)cc(Cl)c2)CC1 [(I-26)]
14,,O=C(NCc1ccccc1F)C1CCN(S(=O)(=O)c2cc(Br)cc(Br)c2)CC1 [(I-38)]
168,837,COc1ncccc1CNC(=O)C1CCN(S(=O)(=O)c2cc(C)cc(Br)c2)CC1 [(I-58)]
17,26,O=C(NCc1ccc(F)cc1)C1CCN(S(=O)(=O)c2cc(Br)cc(Br)c2)CC1 [(I-40)]
46,,Cc1cc(C)cc(S(=O)(=O)N2CCC(C(=O)NCc3ccc(C#N)cc3)CC2)c1 [(I-43)]
14,66,CCOc1cc(Cl)cc(S(=O)(=O)N2CCC(C(=O)NCc3ccc(F)cc3)CC2)c1 [(I-51)]
37,,Cc1ccc(CNC(=O)C2CCN(S(=O)(=O)c3cc(Cl)cc(Cl)c3)CC2)cc1 [(I-8)]
632,675,Cc1ccc(CNC(=O)C2CCN(S(=O)(=O)c3cc(Cl)cc(Cl)c3)CC2)cn1 [(I-16)]
130,138,CCc1ccc(CNC(=O)C2CCN(S(=O)(=O)c3cc(Cl)cc(Cl)c3)CC2)nc1 [(I-17)]

IC50 [1] [nM],IC50 [2] [nM],Structure (SMILES)
27,98,CCc1ccc(CNC(=O)C2CCN(S(=O)(=O)c3cc(C)cc(Br)c3)CC2)nc1 [(I-59)]
246,303,O=C(NCc1nccs1)C1CCN(S(=O)(=O)c2cc(Cl)cc(Cl)c2)CC1 [(I-9)]
202,398,Cc1cc(C)cc(S(=O)(=O)N2CCC(C(=O)NCc3ncc(C)s3)CC2)c1 [(I-46)]
62,231,CCOc1cc(Cl)cc(S(=O)(=O)N2CCC(C(=O)NCc3ccc(C#N)cc3)CC2)c1 [(I-54)]
48,167,COc1cc(Cl)cc(S(=O)(=O)N2CCC(C(=O)NCc3ccc(F)cc3)CC2)c1 [(I-57)]
14,,O=C(NCc1ccc(Br)cc1)C1CCN(S(=O)(=O)c2cc(Br)cc(Br)c2)CC1 [(I-39)]
182,275,COc1ncccc1CNC(=O)C1CCN(S(=O)(=O)c2cc(Br)cc(Br)c2)CC1 [(I-33)]
84,,O=C(NCc1ccc(F)cc1Cl)C1CCN(S(=O)(=O)c2cc(Cl)cc(Cl)c2)CC1 [(I-22)]
142,91,N#Cc1ccc(CNC(=O)C2CCN(S(=O)(=O)c3cc(Cl)cc(Cl)c3)CC2)c(F)c1 [(I-23)]
83,,Cc1csc(CNC(=O)C2CCN(S(=O)(=O)c3cc(Cl)cc(Cl)c3)CC2)n1 [(I-14)]
448,354,O=C(NCc1cccnc1)C1CCN(S(=O)(=O)c2cc(Br)cc(Br)c2)CC1 [(I-36)]
60,,O=C(NCc1ccccc1Cl)C1CCN(S(=O)(=O)c2cc(Cl)cc(Cl)c2)CC1 [(I-18)]
94,,Cc1cc(C)cc(CNC(=O)C2CCN(S(=O)(=O)c3cc(Cl)cc(Cl)c3)CC2)c1 [(I-4)]
14,,O=C(NCc1ccc(Cl)cc1)C1CCN(S(=O)(=O)c2cc(Br)cc(Br)c2)CC1 [(I-30)]
37,,O=C(NCc1ccc(Cl)cc1F)C1CCN(S(=O)(=O)c2cc(Cl)cc(Cl)c2)CC1 [(I-25)]
27,,COc1ccccc1CNC(=O)C1CCN(S(=O)(=O)c2cc(Br)cc(Br)c2)CC1 [(I-34)]
34,,Cc1cc(C)cc(S(=O)(=O)N2CCC(C(=O)NCc3ccccc3F)CC2)c1 [(I-47)]
43,,Cc1csc(CNC(=O)C2CCN(S(=O)(=O)c3cc(Br)cc(Br)c3)CC2)n1 [(I-29)]
23,,N#Cc1ccc(CNC(=O)C2CCN(S(=O)(=O)c3cc(Br)cc(Br)c3)CC2)cc1 [(I-32)]
25,,Cc1cc(C)cc(S(=O)(=O)N2CCC(C(=O)NCc3ccc(Cl)cc3)CC2)c1 [(I-45)]
72,,Cc1ccccc1CNC(=O)C1CCN(S(=O)(=O)c2cc(Cl)cc(Cl)c2)CC1 [(I-19)]
